Results published in patent US8309140B2, “Effect of porcine sheath proteins on the regeneration activity of periodontal ligament” (priority 2005, dated 2012).
“Also recorded” adds a separate entry of the source.

Legend:
[1] = system: human periodontal ligament (HPDL) cells; experiment: ALP inducing activity of HPDL cells on cell culture system; format: cell-based; conditions: for ALP inducing activity of HPDL cells (amelogenins and peptides based on 6 kDa amelogenin): purified porcine amelogenins and synthetic peptides; for ALP activity of HPDL cells (porcine sheath proteins and synthetic peptides): 50 μg/ml protein or peptide, TGF-β1 50 ng/ml, BMP-2 500 ng/ml, 10 nM 1α-25dihydroxy-Vitamin D3
Excerpt: Human periodontal ligament (HPDL) cells were obtained according to the method of Somerman et al., (1988) from healthy premolars which were extracted from the patients for orthodontic reasons. The cells were precultured for 4-6 passages with a-MEM medium to establish the primary cell line. The cells were maintained in the alpha modification of Eagle's medium (α-MEM; Life Technologies, Grand Island, N.Y., USA) containing 10% fetal bovine serum (FBS; Asahi Technoglass, Chiba, Japan) and 1% antibiotics (100 U/ml of Penicillin-G and 100 μg/ml of Streptomycin sulfate; Gibco BRL, Grand Island, N.Y., USA) at 37° C. in a humidified 5% CO2 atmosphere. The ST2 cells (Riken Cell Bank, Tsukuba, Japan), an osteoblast-like mouse bone marrow stromal cell line, were cultured under the same conditions.
HPDL cells were distributed in 96-well plates at a density of approximately 5×10^5 cells per a well and incubated for 24 h. The growth medium was then changed to contain 10 nM of 1α-25dihydroxy-Vitamin D3 (CALBIOCHEM, La Jolla, Calif.) and 50 μg/ml (final concentration) of fractionated enamel protein samples or synthesized peptides dissolved in ultrapure water. After 96 additional hours of incubation, the cells were washed once with PBS, and ALP activity was determined after a 10 min incubation at 37° C. in 10 mM p-nitrophenylphosphate (substrate) in 100 mM 2-amino-2-methyl-1,3-propanediol-HCl buffer (pH 10.0) containing 5 mM MgCl2. After adding 0.2 M NaOH, which stopped the reaction, the absorbance at 405 nm was read on a plate reader.
HPDL cells of approximately 5×10^5 cells per well were distributed in 96-well plates and incubated for 24 h. The growth medium was then changed to contain 10 nM of 1α-25dihydroxy-Vitamin D3 and 50 μg/ml (final concentration) of purified sheath protein or synthesized peptide. After 96 additional hours of incubation, ALP activity was determined using p-nitrophenylphosphate as a substrate.
The bioactivities of these synthetic peptides were tested their cytodifferentiation activity of HPDL cells and ST2 cells by determination of increasing ALP inducing activity on cell culture system. When these peptides applied in cell culture system, the concentration of their peptides was employed around 1 ng/ml. In the case of TGF-1, the concentration was 10 ng/ml.
Normal human periodontal ligament fibroblasts were maintained in an α-minimal essential medium (α-MEM) containing 10% fetal bovine serum, either with or without 10 nM 1α-25dihydroxy-vitamin D3 and 1% antibiotics (100 U/mL of penicillin G and 100 μg/mL of streptomycin sulfate) at 37° C. in a humidified atmosphere of air containing 5% CO2. Another cell line, ST2 cells, was obtained from an osteoblast-like mouse bone marrow stromal cell line. These cells were cultured in the same conditions as those described above.
The ALP inducing activities of synthetic peptides using the cell culture of HPDL cells and ST2 cells were examined. The HPDL cells were distributed in 96-well plates at a density of approximately 5×10^5 cells per well and incubated for 24 h. The medium was then changed to α-MEM containing 10 nM of 1α-25dihydroxy-vitamin D3 and either synthetic peptides or growth factors dissolved in ultra-pure water. After 96 h of incubation, the cells were washed once with phosphate-buffered saline, and 10 mM ρ-nitrophenylphosphate in 100 mM 2-amino-2-methel-1,3-propanediol-HCl buffer (pH 10.0) containing 5 mM MgCl2 was added. The ALP activity was determined after 10 min incubation at 37° C. and the absorbance at 405 nm was read using a plate reader, after adding 0.2 M NaOH to stop the reaction. […] When the synthetic peptides were applied in the cell culture system, their final concentrations were 25 or 50 μg/mL. A TGF-β1 receptor inhibitor (SB431542, 10 μM) was applied to the HPDL cell culture system to examine their influence relative to the ALP inducing activity of the synthetic peptides.

[2] = system: buccal dehiscence type bone defects created along the roots of the canine mandibular premolars; experiment: Cementum regeneration (CR) activity, eight-week histological analysis on buccal dehiscence model of dogs; format: in vivo, beagle dogs; conditions: for CR (cementum regeneration) activity: histological analysis eight weeks after application, buccal dehiscence model of dogs
Method: Approximately 2-year-old male beagle dogs (approximate 15 kg) were used to detect the CR activities after the applications of several enamel protein samples. They had intact dentition and a healthy periodontium. The surgical preparation of buccal dehiscence type bone defects was carried out according to the modified method of Hammarström (1997) under general anesthesia induced and maintained by an endotracheal tube with 1.5-2.0% of halothane (Takeda Yakuhin Co. LTD, Osaka, Japan) in 100% oxygen, after premedicated with intramuscular injection of the mixture of Ketamine HCl (9.8 mg/kg: Sankyo Co. LTD, Tokyo, Japan) and Xylazine HCl (0.7 mg/kg: Bayer Co. LTD, Tokyo, Japan).
Contralateral buccal mucoperiosteal flaps were raised after an intracrevicular incision extending from the first mandibular premolar to the first mandibular molar. After the removing the buccal alveolar bone plate covering the mesial root of the second premolars, the exposed periodontal ligament and cementum of these areas were completely removed by means of a dental bur. At the apical end of the defect, a notch was created to identify the apical extension of the defect, when histological analyses. The distance between the cervical margin and the apical end of the defect was standardized at about 5 mm. The exposed root dentin surfaces were conditioned for 2 min with cotton pellets soaked in a 19% EDTA solution, and then carefully rinsed with sterile saline. Then 50 μg of each enamel protein sample in 100 μl of cold sterile distilled water was applied over the entire buccal surface area of the exposed roots. Finally, the mucoperiosteal flaps were repositioned to their level prior to surgery and sutured. Distilled water was used as a negative control and EMDOGAIN® (BIORA AB, Malmö, Sweden) served as a positive control.
After 8 weeks the dogs were terminated by anesthetization with sodium pentobarbital. Their heads were fixed by perfusion with 0.1 M sodium cacodylate buffer (pH 7.4) containing 4% paraformaldehyde and 1% glutaraldehyde. Tissue blocks, which included teeth, bone, and tissue were dissected and demineralized in 10% formic acid containing 0.06 M sodium citrate and 0.1 M citric acid. All specimens were dehydrated using a graded series of alcohols and then embedded in paraffin. Serial sections (5 μm thick) were made and stained with hematoxylin/eosin for examination by light microscopy.
The length and thickness of cementums regenerated after application of fractionated and purified enamel protein samples and EMD were measured on the computer monitor of histological results. The length of the regenerated cementum was straight distance between the apical end of the defect and coronal extention of the new cementum, as well as to the crest of the new alveolar bone. Also, the thickness of cementum was measured at coronal end, apical end and between them.
CR promoting activity of enamel proteins obtained at each extracted and purified step were examined by eight-week histological analysis of buccal dehiscence type bone defects created along the roots of canine mandible (FIG. 1).

NC(=O)c1ccc(-c2nc(-c3ccc4c(c3)OCO4)c(-c3ccccn3)[nH]2)cc1 [SB431542, reference compound]
ALP inducing activity of HPDL cells when adding TGF-β1 receptor inhibitor SB431542 ([1]; 10 μM SB431542, 10 nM 1α-25dihydroxy-vitamin D3): significantly inhibited the activity of TGF-β1

A-1-1: shorter peptide synthesized based on the sequence of A-1 (MPLPPH; 6 aa from 1 to 6 in sequence 9, 14, 33 and 34; listed as Homo sapiens)
concentration at which the peptide promotes the bioactivity (ALP inducing activity of HPDL cells), high concentration ([1]; cell culture system): 1 µg/mL | ALP inducing activity of HPDL cells (amelogenins and peptides based on 6 kDa amelogenin) [1]: promote ALP inducing activity | ALP inducing activity of HPDL cells (amelogenins and peptides based on 6 kDa amelogenin) ([1]; listed as SEQ ID NO: 6): had ALP inducing activity

C-1: 15-residue peptide, position 132-146 of porcine 17 kDa sheath protein (VEGPMVQQQVAPSEK; 15 aa from 132 to 146 in sequence 10; listed as Sus scrofa)
ALP activity of HPDL cells (porcine sheath proteins and synthetic peptides) ([1]; 96 h): not so strong; also recorded: enhanced the ALP activity of the HPDL cells

SDKPPKPELPVDF (13 aa from 144 to 156 in sequence 36; listed as Homo sapiens) [H-2′]
ALP inducing activity of HPDL cells (Example 4) ([1]; peptides 50 μg/mL, TGF-β1 1 ng/mL, BMP-2 1 μg/mL, 10 nM 1α-25dihydroxy-vitamin D3, 96 h): showed the same inductive properties

C=C1/C(=C\C=C2/CCC[C@]3(C)[C@@H]([C@H](C)CCCC(C)(C)O)CC[C@@H]23)C[C@@H](O)C[C@@H]1O [1α-25dihydroxy-vitamin D3, reference compound]
levels of ALP activity of HPDL cells by addition of 1α-25dihydroxy-vitamin D3 ([1]; 10 nM, with application of ESP synthetic peptides or TGF-β1): enhanced and stabilized

A-1-2: shorter peptide synthesized based on the sequence of A-1 (PGHPGY; 6 aa from 7 to 12 in sequence 9, 14, 33 and 34; listed as Homo sapiens)
concentration at which the peptide promotes the bioactivity (ALP inducing activity of HPDL cells), low concentration ([1]; cell culture system): 10 ng/mL | ALP inducing activity of HPDL cells (amelogenins and peptides based on 6 kDa amelogenin) [1]: promote ALP inducing activity

6 kDa amelogenin: derived from N-terminal side of 20 kDa amelogenin (MPLPPHPGHPGYINFSYEVLTPLKWYQNMIRHPYTSYGYEPMGGW; porcine 6 kDa amelogenin; listed as Sus scrofa)
ALP inducing activity of HPDL cells (amelogenins and peptides based on 6 kDa amelogenin) [1]: activity like TGF-β1; also recorded: strongest ALP inducing activity of HPDL cells

A-1: N-terminal side peptide synthesized based on the sequence of 6 kDa amelogenin (MPLPPHPGHPGYINF; 15 aa from 1 to 15 in sequence 14, 33 and 34; listed as Homo sapiens)
ALP inducing activity of HPDL cells (amelogenins and peptides based on 6 kDa amelogenin) [1]: showed the strong bioactivity

B1: 25 kDa amelogenin: most abundant uncleaved porcine amelogenin polypeptide (protein, UniProt P45561 17-189, looked up)
Amelogenin: MPLPPHPGHPGYINFSYEVLTPLKWYQNMIRHPYTSYGYEPMGGWLHHQIIPVVSQQTPQSHALQPHHHIPMVPAQQPGIPQQPMMPLPGQHSMTPTQHHQPNLPLPAQQPFQPQPVQPQPHQPLQPQSPMHPIQPLLPQPPLPPMFSMQSLLPDLPLEAWPATDKTKREEVD
ALP inducing activity of HPDL cells (amelogenins and peptides based on 6 kDa amelogenin) [1]: activity like TGF-β1

B2: 17 kDa sheath protein: Porcine 17 kDa sheath protein, N-terminal cleavage product of sheathlin containing 170 amino acids (protein, listed as Sus scrofa)
chain: VPAFPRQPGTPGVASLSLETMRQLGSLQGLNMLSQYSRFGFGKSFNSLWMHGLLPPHSSFQWMRPREHETQQYEYSLPVHPPPLPSQPSLQPQQPGQKPFLQPTVVTSIQNPVQKGVPQPPIYQGHPPLQQVEGPMVQQQVAPSEKPPEAELPGLDFADPQDPSMFPIAR
modifications: porcine sheath protein
notes: Porcine 17 kDa sheath protein, N-terminal cleavage product of sheathlin containing 170 amino acids
thickness of regenerated cementum ([2]; eight weeks following application, measured at 3 points (apical, middle, coronal), beagle dogs): 31.77±3.78 μm | CR (cementum regeneration) activity [2]: induced a thick acellular cementum; also recorded: induced thick acellular cementum near the apical end of the defect, but the CR was scarce near the coronal end; also recorded: induced a smaller area of cementum regeneration; also recorded: exhibited the CR activity | CR (cementum regeneration) activity ([2]; listed as 17 kDa ESP): stronger cementum regeneration promoting activity | ALP activity of HPDL cells (porcine sheath proteins and synthetic peptides) ([1]; 96 h): enhanced | ALP activity of HPDL cells (porcine sheath proteins and synthetic peptides) ([1]; 96 h, listed as 17 kDa ESP): weaker than that of TGF-β1
